According to PMC11859928, “Design, Synthesis, and Antiproliferative Activity of Novel Indole/1,2,4-Triazole Hybrids as Tubulin Polymerization Inhibitors” (Pharmaceuticals, 2025):
Read-outs that look alike come from different tables or passages of the source.

What was measured:
OVCAR-5 = test: NCI five-dose assay; type: cell-based, human; settings: OVCAR-5, Ovarian cancer
UACC-62 = test: NCI five-dose assay; type: cell-based, human; settings: UACC-62, Melanoma
SK-MEL-5 = test: NCI five-dose assay; type: cell-based, human; settings: SK-MEL-5, Melanoma
UACC-257 = test: NCI five-dose assay; type: cell-based, human; settings: UACC-257, Melanoma
HCT-15 = test: NCI five-dose assay; type: cell-based, human; settings: HCT-15, Colon cancer
Breast cancer subpanel = test: NCI five-dose assay, subpanel mean; type: cell-based, human
COLO205 = test: NCI five-dose assay; type: cell-based, human; settings: COLO205, Colon cancer
MCF7 = test: NCI five-dose assay; type: cell-based, human; settings: MCF7, Breast cancer
Leukemia subpanel = test: NCI five-dose assay, subpanel mean; type: cell-based, human
RPMI-8226 = test: NCI five-dose assay; type: cell-based, human; settings: RPMI-8226, Leukemia
U251 = test: NCI five-dose assay; type: cell-based, human; settings: U251, CNS cancer
Renal cancer subpanel = test: NCI five-dose assay, subpanel mean; type: cell-based, human
BT-549 = test: NCI five-dose assay; type: cell-based, human; settings: BT-549, Breast cancer
IGROV1 = test: NCI five-dose assay; type: cell-based, human; settings: IGROV1, Ovarian cancer
HS 578T = test: NCI five-dose assay; type: cell-based, human; settings: Breast cancer
T-47D = test: NCI five-dose assay; type: cell-based, human; settings: Breast cancer
NCI-H226 = test: NCI five-dose assay; type: cell-based, human; settings: NCI-H226, Non-small cell lung cancer
MDA-MB-468 = test: NCI five-dose assay; type: cell-based, human; settings: Homo sapiens, MDA-MB-468, Breast cancer
A549/ATCC = test: NCI five-dose assay; type: cell-based, human; settings: Non-small cell lung cancer
[1] = system: panel of 60 human tumor cell lines; test: NCI five-dose assay, full panel; type: cell-based
NCI-H23 = test: NCI five-dose assay; type: cell-based, human; settings: NCI-H23, Non-small cell lung cancer
HCT-116 = test: NCI five-dose assay; type: cell-based, human; settings: HCT-116, Colon cancer
Melanoma subpanel = test: NCI five-dose assay, subpanel mean; type: cell-based, human
CNS cancer subpanel = test: NCI five-dose assay, subpanel mean; type: cell-based, human
SK-MEL-28 = test: NCI five-dose assay; type: cell-based, human; settings: SK-MEL-28, Melanoma
HOP-92 = test: NCI five-dose assay; type: cell-based, human; settings: HOP-92, Non-small cell lung cancer
K-562 = test: NCI five-dose assay; type: cell-based, human; settings: K-562, Leukemia
[2] = Homo sapiens, read-out: GI50 Conc. per Cell Lines
[3] = Homo sapiens, 48 h, read-out: LC50 (the source's name)

Cc1ccc(C(=O)CSc2nnc(-c3c[nH]c4ccccc34)n2-c2ccccc2)cc1 [Compound 6h, 2-((5-(1H-Indol-3-yl)-4-phenyl-4H-1,2,4-triazol-3-yl)thio)-1-(p-tolyl)ethenone]
LC50 (OVCAR-5; Homo sapiens, 48 h): 71.5 µM | GI50 (OVCAR-5; [2]): 19.4 µM | TGI Conc. per Cell Lines (OVCAR-5): 37.20 µM | CC50 (UACC-62; [3]): 95.1 µM | GI50 (UACC-62; [2]): 15.3 µM | TGI Conc. per Cell Lines (UACC-62): 38.10 µM | CC50 (SK-MEL-5; [3]): 92.4 µM | GI50 (SK-MEL-5; [2]): 16.5 µM | TGI Conc. per Cell Lines (SK-MEL-5): 39.10 µM | CC50 (UACC-257; [3]): > 100 µM | GI50 (UACC-257; [2]): 28.9 µM | TGI Conc. per Cell Lines (UACC-257): >100 µM | TGI Conc. per Cell Lines (HCT-15): >100 µM | CC50 (HCT-15; [3]): > 100 µM | GI50 (HCT-15; [2]): 22.6 µM | GI50 Selectivity Ratio (MID a/MID b) (Breast cancer subpanel; Breast cancer subpanel): 1.07 | GI50 (Breast cancer subpanel; Homo sapiens, average sensitivity of all cell lines of the Breast cancer subpanel, read-out: GI50 Subpanel MID b): 18 µM | TGI Conc. per Cell Lines (COLO205): >100 µM | CC50 (COLO205; Homo sapiens, COLO 205, 48 h, read-out: LC50 (the source's name)): > 100 µM | GI50 (COLO205; Homo sapiens, COLO 205, read-out: GI50 Conc. per Cell Lines): 34.4 µM | LC50 (MCF7; Homo sapiens, 48 h): 98.1 µM | GI50 (MCF7; [2]): 15.7 µM | TGI Conc. per Cell Lines (MCF7): 39.20 µM | GI50 (Leukemia subpanel; Homo sapiens, average sensitivity of all cell lines of the Leukemia subpanel, read-out: GI50 Subpanel MID b): 33.5 µM | GI50 Selectivity Ratio (MID a/MID b) (Leukemia subpanel; Leukemia subpanel): 0.58 | CC50 (RPMI-8226; [3]): > 100 µM | GI50 (RPMI-8226; [2]): 29.8 µM | TGI Conc. per Cell Lines (RPMI-8226): ˃100 µM | CC50 (U251; Homo sapiens, U-251, 48 h, read-out: LC50 (the source's name)): > 100 µM | GI50 (U251; Homo sapiens, U-251, read-out: GI50 Conc. per Cell Lines): 23.6 µM | TGI Conc. per Cell Lines (U251): 65.60 µM | GI50 (Renal cancer subpanel; Homo sapiens, average sensitivity of all cell lines of the Renal cancer subpanel, read-out: GI50 Subpanel MID b): 17 µM | GI50 Selectivity Ratio (MID a/MID b) (Renal cancer subpanel; Renal cancer subpanel): 1.13 | TGI Conc. per Cell Lines (BT-549): 46.70 µM | CC50 (BT-549; [3]): 87.2 µM | GI50 (BT-549; [2]): 25.1 µM | CC50 (IGROV1; Homo sapiens, IGROV-1, 48 h, read-out: LC50 (the source's name)): 61 µM | GI50 (IGROV1; Homo sapiens, IGROV-1, read-out: GI50 Conc. per Cell Lines): 16.1 µM | TGI Conc. per Cell Lines (IGROV1): 31.30 µM | TGI Conc. per Cell Lines (HS 578T): 56.30 µM | LC50 (HS 578T; Homo sapiens, 48 h): > 100 µM | GI50 (HS 578T; [2]): 14.1 µM | TGI Conc. per Cell Lines (T-47D): ˃100 µM | LC50 (concentration killing 50% of cells) (T-47D; Homo sapiens, T47D, 48 h): > 100 µM | GI50 (T-47D; Homo sapiens, T47D, read-out: GI50 Conc. per Cell Lines): 24.9 µM | CC50 (NCI-H226; [3]): 69.8 µM | GI50 (NCI-H226; [2]): 9.22 µM | TGI Conc. per Cell Lines (NCI-H226): 26.10 µM | LC50 (MDA-MB-468; 48 h): 81.3 µM | GI50 (MDA-MB-468; read-out: GI50 Conc. per Cell Lines): 12.8 µM | CC50 (A549/ATCC; [3]): > 100 µM | GI50 (A549/ATCC; [2]): 13.9 µM | TGI Conc. per Cell Lines (A549/ATCC): 48.50 µM | GI50 ([1]; average sensitivity of all cell lines, read-out: GI50 MID a): 19.3 µM | GI50 ([1]; most of the tested cell lines across nine subpanels, read-out: GI50 values, range across nine subpanels): 8.42 to 33.5 µM | CC50 (NCI-H23; [3]): 54.9 µM | GI50 (NCI-H23; [2]): 13.7 µM | TGI Conc. per Cell Lines (NCI-H23): 27.50 µM | TGI Conc. per Cell Lines (HCT-116): 60.40 µM | CC50 (HCT-116; [3]): > 100 µM | GI50 (HCT-116; [2]): 18.7 µM | GI50 (Melanoma subpanel; Homo sapiens, average sensitivity of all cell lines of the Melanoma subpanel, read-out: GI50 Subpanel MID b): 21.8 µM | GI50 Selectivity Ratio (MID a/MID b) (Melanoma subpanel; Melanoma subpanel): 0.88 | GI50 Selectivity Ratio (MID a/MID b) (CNS cancer subpanel; CNS cancer subpanel): 1.11 | GI50 (CNS cancer subpanel; Homo sapiens, average sensitivity of all cell lines of the CNS cancer subpanel, read-out: GI50 Subpanel MID b): 17.4 µM | CC50 (SK-MEL-28; [3]): > 100 µM | GI50 (SK-MEL-28; [2]): 19.6 µM | TGI Conc. per Cell Lines (SK-MEL-28): 52.10 µM | TGI Conc. per Cell Lines (HOP-92): 34.70 µM | CC50 (HOP-92; [3]): 82.1 µM | GI50 (HOP-92; [2]): 14.7 µM | CC50 (K-562; Homo sapiens, K562, 48 h, read-out: LC50 (the source's name)): > 100 µM | GI50 (K-562; Homo sapiens, K562, read-out: GI50 Conc. per Cell Lines): 22.1 µM | TGI Conc. per Cell Lines (K-562): ˃100 µM
